Assay results published in US20090239841A1, “Diaryl Ureas as CB1 Antagonists” (priority 2004, published 2009).
pIC50: −log10 of the molar value.

Target: T1, hCB1 (Homo sapiens, UniProt P21554)
T1 construct: made in house; host or cells: Sf9 insect cells (baculovirus), P2 membranes
Assay: Agonist-induced GTP binding (GTPγ35S) assay at CB1, Example 8
Type: biochemical
Conditions: IC50 at CB1, determined as described in Example 8; read-out: IC50
How it was run: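 Membranes from Sf9 cells co-expressing hCB1 and heterotrimeric G-protein (10 μg protein) in Tris pH 7.4 buffer with 5 μM GDP. Test compounds (10^−10–10^−5 M) competed against 1 nM CP55,940 with […] GTPγ35S, 60 min at room temperature. Filter-bound radioactivity by scintillation, expressed as percent above basal.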

T1 sequence (P21554 whole entry): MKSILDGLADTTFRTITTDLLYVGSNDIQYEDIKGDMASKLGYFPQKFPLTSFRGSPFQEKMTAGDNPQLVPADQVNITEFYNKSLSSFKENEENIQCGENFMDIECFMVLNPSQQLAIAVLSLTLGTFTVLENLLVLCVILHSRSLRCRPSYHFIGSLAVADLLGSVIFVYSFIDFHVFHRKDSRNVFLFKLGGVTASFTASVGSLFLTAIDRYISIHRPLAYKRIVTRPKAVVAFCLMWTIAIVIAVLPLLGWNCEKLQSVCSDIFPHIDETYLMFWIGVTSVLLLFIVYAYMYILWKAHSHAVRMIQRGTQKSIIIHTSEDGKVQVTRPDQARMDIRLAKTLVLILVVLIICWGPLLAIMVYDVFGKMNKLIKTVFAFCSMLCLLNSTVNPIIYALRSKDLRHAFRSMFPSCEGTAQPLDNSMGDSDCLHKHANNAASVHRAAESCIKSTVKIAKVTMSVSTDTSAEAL

pIC50, > 5.70:
CC(C)Oc1cccc(NC(=O)Nc2ccc(Cl)cc2)c1 [Compound 401, 1-(4-chlorophenyl)-3-(3-isopropoxyphenyl)urea]
CN(CCc1cccc(NC(=O)Nc2cccc(OC(F)F)c2)c1)S(C)(=O)=O [Compound 785, N-(2-{3-[({[3-(difluoromethoxy)phenyl]amino}carbonyl)amino]phenyl}ethyl)-N-methylmethane-sulfonamide]
CCOc1cccc(NC(=O)Nc2cccc(C(=O)OC)c2)c1 [Compound 659, methyl 3-({[(3-ethoxyphenyl)amino]carbonyl}amino)benzoate]
CCOc1cccc(NC(=O)Nc2ccc(C(=O)OC)cc2)c1 [Compound 660, methyl 4-({[(3-ethoxyphenyl)amino]carbonyl}amino)benzoate]
CCOc1ccc(NC(=O)Nc2cc(C)cc(C)c2)cc1 [Compound 704, 1-(3,5-dimethylphenyl)-3-(4-ethoxyphenyl)urea]
COc1ccc(NC(=O)Nc2ccc3c(c2)CCC3)cc1 [Compound 620, 1-(2,3-dihydro-1H-inden-5-yl)-3-(4-methoxyphenyl)urea]
CCOC(=O)c1ccc(NC(=O)Nc2ccc(CC#N)cc2)cc1 [Compound 715, ethyl 4-[({[4-(cyanomethyl)phenyl]amino}carbonyl)amino]benzoate]
O=C(Nc1ccc(OC(F)(F)F)cc1)Nc1cccc(OC(F)F)c1 [Compound 540, 1-[3-(difluoromethoxy)phenyl]-3-[4-(trifluoromethoxy)phenyl]urea]
O=C(Nc1ccc(Cn2cncn2)cc1)Nc1ccc(OC(F)F)cc1 [Compound 787, N-[4-(difluoromethoxy)phenyl]-N′-[4-(1H-1,2,4-triazol-1-ylmethyl)phenyl]urea]
CCc1ccc(NC(=O)Nc2cccc(CC)c2)cc1 [Compound 329, 1-(3-ethylphenyl)-3-(4-ethylphenyl)urea]
CCc1ccc(NC(=O)Nc2ncccc2C)cc1 [Compound 639, 1-(4-ethylphenyl)-3-(3-methylpyridin-2-yl)urea]
CC(C)Oc1cccc(NC(=O)Nc2cccc(Cl)c2)c1 [Compound 400, 1-(3-chlorophenyl)-3-(3-isopropoxyphenyl)urea]
CCCOc1ccc(NC(=O)Nc2cccc(F)c2)cc1 [Compound 361, 1-(3-fluorophenyl)-3-(4-propoxyphenyl)urea]
CCOc1ccc(NC(=O)Nc2ccc(OCC#N)cc2)cc1 [Compound 590, 1-[4-(cyanomethoxy)phenyl]-3-(4-ethoxyphenyl)urea]
CC(=O)c1ccc(NC(=O)Nc2ccc(F)c(C)c2)cc1 [Compound 451, 1-(4-acetylphenyl)-3-(4-fluoro-3-methylphenyl)urea]
CCOc1ccc(NC(=O)Nc2cccc(C(C)=O)c2)cc1 [Compound 412, 1-(3-acetylphenyl)-3-(4-ethoxyphenyl)urea]
Cc1ccc(NC(=O)Nc2ccc(Cl)cc2)cc1C [Compound 437, 1-(4-chlorophenyl)-3-(3,4-dimethylphenyl)urea]
Cc1ccc(NC(=O)Nc2cccc(F)c2)cc1Cl [Compound 433, 1-(3-chloro-4-methylphenyl)-3-(3-fluorophenyl)urea]
CCc1cccc(NC(=O)Nc2ccc(C)c(F)c2)c1 [Compound 438, 1-(3-ethylphenyl)-3-(3-fluoro-4-methylphenyl)urea]
CCc1ccc(NC(=O)Nc2ccc(OC)cc2)cc1 [Compound 382, 1-(4-ethylphenyl)-3-(4-methoxyphenyl)urea]
Cc1cccc(NC(=O)Nc2ccc(-n3cnc(Cl)c3Cl)cc2)c1 [Compound 319, 1-[4-(4,5-dichloro-1H-imidazol-1-yl)phenyl]-3-(3-methylphenyl)urea]
CCCc1ccc(NC(=O)Nc2ccc(Cl)cc2)cc1 [Compound 336, 1-(4-chlorophenyl)-3-(4-propylphenyl)urea]
Cc1ccc(NC(=O)Nc2ccc(OC(C)C)cc2)cc1F [Compound 692, 1-(3-fluoro-4-methylphenyl)-3-(4-isopropoxyphenyl)urea]
Cc1ccc(NC(=O)Nc2ccc(C)c(F)c2)cc1F [Compound 772, 1,3-bis(3-fluoro-4-methylphenyl)urea]
O=C(Nc1ccc(OC(F)F)cc1)Nc1ccc(F)c(F)c1 [Compound 609, 1-[4-(difluoromethoxy)phenyl]-3-(3,4-difluorophenyl)urea]
Cc1cccnc1NC(=O)Nc1ccc(OC(F)F)cc1 [Compound 632, 1-[4-(difluoromethoxy)phenyl]-3-(3-methylpyridin-2-yl)urea]
CCOC(=O)c1cccc(NC(=O)Nc2ccc(S(C)(=O)=O)cc2)c1 [Compound 723, ethyl 3-[({[4-(methylsulfonyl)phenyl]amino}carbonyl)amino] benzoate]
CCOc1ccc(NC(=O)Nc2cccc(CC)c2)cc1 [Compound 387, 1-(4-ethoxyphenyl)-3-(3-ethylphenyl)urea]
CC(=O)c1ccc(NC(=O)Nc2ccc(Cl)nc2)cc1 [Compound 637, 1-(4-acetylphenyl)-3-(6-chloropyridin-3-yl)urea]
CC(=O)c1cccc(NC(=O)Nc2ccc(C)c(F)c2)c1 [Compound 449, 1-(3-acetylphenyl)-3-(3-fluoro-4-methylphenyl)urea]
CC(C)c1ccc(NC(=O)Nc2ccc(OC(F)F)cc2)cc1 [Compound 518, 1-[4-(difluoromethoxy)phenyl]-3-(4-isopropylphenyl)urea]
CC(=O)c1ccc(NC(=O)Nc2ccc3c(c2)CCC3)cc1 [Compound 456, 1-(4-acetylphenyl)-3-(2,3-dihydro-1H-inden-5-yl)urea]
Cc1ccc(NC(=O)Nc2ccc(CCO)cc2)cc1C [Compound 761, 1-(3,4-dimethylphenyl)-3-[4-(2-hydroxyethyl)phenyl]urea]
Cc1ccc(NC(=O)Nc2ccc(Cl)cc2)cc1 [Compound 314, N-(4-chlorophenyl)-N′-(4-methylphenyl)urea]
CCc1ccc(NC(=O)Nc2ccc(Cl)c(C)c2)cc1 [Compound 446, 1-(4-chloro-3-methylphenyl)-3-(4-ethylphenyl)urea]
CCOC(=O)c1cccc(NC(=O)Nc2ccc(OCC)cc2)c1 [Compound 664, ethyl 3-({[(4-ethoxyphenyl)amino]carbonyl}amino)benzoate]
CCCOc1ccc(NC(=O)Nc2cccc(Cl)c2)cc1 [Compound 397, 1-(3-chlorophenyl)-3-(4-propoxyphenyl)urea]
COC(=O)c1cccc(NC(=O)Nc2ccc(OC(F)F)cc2)c1 [Compound 679, methyl 3-[({[4-(difluoromethoxy)phenyl]amino}carbonyl)amino]benzoate]

Same assay, conditions: Table I; IC50 at CB1, GTP binding with 1 nM CP55,940; read-out: IC50

pIC50, > 5.70:
CCCc1ccc(NC(=O)Nc2ccccc2)cc1 [Compound 45, N-phenyl-N′-(4-propylphenyl)urea]
COc1cc(NC(=O)Nc2ccc(OC(F)F)c(OC)c2)ccc1OC(F)F [Compound 54, N,N′-bis[4-(difluoromethoxy)-3-methoxyphenyl]urea]
CCc1ccc(NC(=O)Nc2cccc(OC)c2)cc1 [Compound 57, N-(4-ethylphenyl)-N′-(3-methoxyphenyl)urea]

Same assay, conditions: Table II; IC50 at CB1, GTP binding with 1 nM CP55,940; read-out: IC50

pIC50, > 5.70:
CCCc1ccc(NC(=O)Nc2cccc(C(C)=O)c2)cc1 [Compound 199, N-(3-acetylphenyl)-N′-(4-propylphenyl)urea]
Cc1cccc(NC(=O)Nc2cccc(OC(C)C)c2)c1 [Compound 156, N-(3-isopropoxyphenyl)-N′-(3-methylphenyl)urea]
O=C(Nc1ccc(OC(F)F)cc1)Nc1cccc(-c2cncnc2)c1 [Compound 64, N-[4-(difluoromethoxy)phenyl]-N′-(3-pyrimidin-5-ylphenyl)urea]
COc1ccc(NC(=O)Nc2ccc(OC(F)F)cc2)cc1OC1CCCC1 [Compound 84, N-[3-(cyclopentyloxy)-4-methoxyphenyl]-N′-[4-(difluoromethoxy)phenyl]urea]
CC(C)c1ccc(NC(=O)Nc2ccc(Cl)cc2)cc1 [Compound 182, N-(4-chlorophenyl)-N′-(4-isopropylphenyl)urea]
Cc1cccc(NC(=O)Nc2ccc(-n3cnc(Cl)c3Cl)cc2)c1 [Compound 165, N-{4-(4,5-dichloro-1H-imidazol-1-yl)phenyl]-N′-(3-methylphenyl)urea]
O=C(Nc1ccc(F)cc1)Nc1cccc(OC(F)F)c1 [Compound 220, N-[3-(difluoromethoxy)phenyl]-N′-(4-fluorophenyl)urea]
N#Cc1cccc(NC(=O)Nc2cccc(OC(F)F)c2)c1 [Compound 284, N-(3-cyanophenyl)-N′-[3-(difluoromethoxy)phenyl]urea]
O=C(Nc1cccc(OC(F)F)c1)Nc1cccc(OC(F)F)c1 [Compound 112, N,N′-bis[3-(difluoromethoxy)phenyl]urea]
O=C(Nc1ccc(OC(F)F)cc1)Nc1ccc(N2CCCC2)cc1 [Compound 104, N-[4-(difluoromethoxy)phenyl]-N′-(4-pyrrolidin-1-ylphenyl)urea]
CCc1ccccc1NC(=O)Nc1cccc(OC(F)F)c1 [Compound 227, N-[3-(difluoromethoxy)phenyl]-N′-(2-ethylphenyl)urea]
CCOc1ccc(NC(=O)Nc2cccc(CC)c2)cc1 [Compound 234, N-(4-ethoxyphenyl)-N′-(3-ethylphenyl)urea]
Cc1ccc(NC(=O)Nc2ccc(OC(C)C)cc2)cc1 [Compound 214, N-(4-isopropoxyphenyl)-N′-(4-methylphenyl)urea]
